The values below come from patent publication US20090312349A1, “ANTI-INFLAMMATORY MEDICAMENTS” (priority 2004, published 2009).

T1 sequence (Q16539 whole entry): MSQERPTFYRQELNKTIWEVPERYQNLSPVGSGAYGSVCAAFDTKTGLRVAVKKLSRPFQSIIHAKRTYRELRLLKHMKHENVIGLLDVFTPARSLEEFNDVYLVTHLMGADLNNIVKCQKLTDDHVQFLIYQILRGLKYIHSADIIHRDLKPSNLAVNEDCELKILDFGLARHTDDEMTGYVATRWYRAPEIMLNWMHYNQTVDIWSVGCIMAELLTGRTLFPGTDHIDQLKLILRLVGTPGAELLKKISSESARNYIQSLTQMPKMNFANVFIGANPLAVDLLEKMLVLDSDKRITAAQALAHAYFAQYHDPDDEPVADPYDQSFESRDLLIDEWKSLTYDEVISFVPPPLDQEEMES

The first test concerns the target T1, phospho p-38 alpha kinase (Homo sapiens, UniProt Q16539).
T1 construct: purchased Panvera
In words: P-38 alpha kinase assay (spectrophotometric, pyruvate kinase/lactate dehydrogenase coupled). It is filed as biochemical. As to conditions: Table 5; @ 1 uM. The protocol: In this assay, the oxidation of NADH was continuously measured spectrophometrically. […] The reaction was initiated by adding ATP. The absorption at 340 nm was monitored continuously for up to 4 hours at 30° C. on Polarstar Optima plate reader (BMG). The kinase activity (reaction rate) was calculated from the slope at the time frame from 1.5 h to 2 h.
For inhibition determinations, test compounds were incubated with the reaction mixture for ˜5 min before adding ATP to start the reaction. […] IC50 values were calculated from a series of % inhibition values determined at a range of concentrations of each inhibitor using Prism to process the data and fit inhibition curves. Generally, the rates obtained at the time frame of 1.5 h to 2 h were used for these calculations.
Regarding `CN(C)C(=O)NCc1cccc(-n2nc(C(C)(C)C)cc2NC(=O)Nc2cccc3ccccc23)c1` [Example 384, 1-{3-t-butyl-1-[3-(3,3-dimethylureidomethyl)phenyl]-1H-pyrazol-5-yl}-3-(naphthalen 1-yl)urea], the “% @ concentration, uM” value was found to be 72%.

The test is the same for the next values; noted with them: Table 5; @ 2 uM.
In the case of `O=C(Nc1ccc(Cl)cc1)Nc1cc(C(F)(F)F)nn1-c1ccc(CO)cc1` [Example 339, 1-(4-chlorophenyl)-3-{3-(trifluoromethyl)-1-[4-(hydroxyl-methyl)phenyl]-1H-pyrazol-5-yl}urea], the “% @ concentration, uM” value is on record as 9% @ 2.

The test is the same for the next values; noted with them: Table 5; @ 10 uM.
As for `CN(C)C(=O)NCc1cccc(-n2nc(C(C)(C)C)cc2NC(=O)Nc2cccc3ccccc23)c1` [Example 384, 1-{3-t-butyl-1-[3-(3,3-dimethylureidomethyl)phenyl]-1H-pyrazol-5-yl}-3-(naphthalen 1-yl)urea], the “% @ concentration, uM” value was determined as 96%.

`CCOC(=O)c1cccc(-n2nc(C)cc2NC(=O)Nc2cccc3ccccc23)c1` [Example 340, ethyl 3-{3-methyl-5-[3-(naphthalen-1-yl)ureido]-1H-pyrazol-1-yl}benzoate]: the “% @ concentration, uM” value is 31% @ 10.

The test is the same for the next values; noted with them: Table 5; assay not named; read-out: uM.
In the case of `CC(C)(C)c1cc(N)n(-c2ccc(O)cc2)n1` [Example 420, 4-(3-t-butyl-5-amino-1H-pyrazol-1-yl)phenol], the IC50 is 0.0147 µM.

For `CC(C)(C)c1cc(NC(=O)Nc2ccc(Cl)cc2)n(-c2cccc(CNC(=O)N3CCCCC3)c2)n1` [Example 385, 1-(3-t-butyl-1-{3-[(piperidine-1-carboxamido)methyl]phenyl}-1H-pyrazol-5-yl)-3-(4-chlorophenyl)urea], the IC50 came to 0.03 µM.

`CCOC(=O)Cc1ccc(-n2nc(C(C)(C)C)cc2NC(=O)Nc2ccc(Cl)cc2)cc1` [Example 317, ethyl 2-(4-{3-t-butyl-5-[3-(4-chlorophenyl)ureido]-1H-pyrazol-1-yl}phenyl)acetate]: the IC50 is 0.068 µM.

Consider `CC(C)(C)c1cc(NC(=O)Nc2ccc(F)cc2)n(-c2cccc(Cn3c(=O)[nH]n(-c4ccccc4)c3=O)c2)n1` [Example 395, 1-{3-t-butyl-1-(3-[(3,5-dioxo-1-phenyl-1,2,4-triazolidin-4-yl)methyl]phenyl}-1H-pyrazol-5-yl)-3-(4-fluorophenyl)urea], for which the IC50 came to 0.056 µM.

Regarding `CC(C)c1cc(NC(=O)Nc2ccc(Cl)cc2)n(-c2ccc(CO)cc2)n1` [Example 335, 1-(4-chlorophenyl)-3-{1-[4-(hydroxymethyl)phenyl]-3-isopropyl-1H-pyrazol-5-yl}-urea], the IC50 is 0.014 µM.

As for `CCOC(=O)c1ccc(-n2nc(C(C)(C)C)cc2NC(=O)Nc2cccc3ccccc23)cc1` [Example 357, ethyl 4-{3-t-butyl-5-[3-(naphthalen-1-yl)ureido]-1H-pyrazol-1-yl}benzoate], the IC50 came out at 0.13 µM.

Consider `CC(C)(C)c1cc(NC(=O)Nc2cccc(Cl)c2Cl)n(-c2cccc(CO)c2)n1` [Example 372, 1-[3-t-butyl-1-(3-hydroxymethyl-phenyl)-1H-pyrazol-5-yl]-3-(2,3-dichlorophenyl)-urea], for which the IC50 is 1.46 µM.

Take `O=C(Nc1cccc(Cl)c1Cl)Nc1cc(-c2cccs2)nn1-c1cccc(CO)c1` [Example 486, 1-(2,3-dichlorophenyl)-3-(1-(3-(hydroxymethyl)phenyl)-3-(thiophen-2-yl)-1H-pyrazol-5-yl)urea]: the IC50 was found to be 0.057 µM.

As for `CC(Cc1ccc(-n2nc(C(C)(C)C)cc2NC(=O)Nc2ccc(Cl)cc2)cc1)C(=O)O` (stereo not drawn) [Example 327, 3-(4-{3-t-butyl-5-[3-(4-chlorophenyl)ureido]-1H-pyrazol-1-yl}phenyl)-2-methylpropanoic acid], the IC50 is 0.81 µM.

As to `CC(C)(C)c1cc(NC(=O)Nc2cccc3ccccc23)n(-c2ccc3c(c2)CNCC3)n1` [Example 406, 1-[3-t-butyl-1-(1,2,3,4-tetrahydroisoquinolin-7-yl)-1H-pyrazol-5-yl]-3-(naphthalen-1-yl)urea], the IC50 amounted to 0.0134 µM.

For the molecule `CCOC(=O)Cc1cccc(-n2nc(C(C)(C)C)cc2NC(=O)Nc2ccccc2)c1` [Example 397, ethyl 2-{3-[3-t-butyl-5-(3-phenylureido)-1H-pyrazol-1-yl]phenyl}acetate], the IC50 is 0.04 µM.
